Laboratory results taken from patent publication US10647694B2, “Diphenylaminopyrimidine and triazine compound, and pharmaceutical composition and use thereof” (ARROMAX PHARMATECH CO., LTD., priority 2016, dated 2020).

What follows are molecules tested against ALK enzyme (Homo sapiens, UniProt Q9UM73) (assay: In-vitro ALK kinase inhibitory activity (HTRF kinEASE TK kit)). Conditions: inhibitory activity for ALK enzyme, read-out: IC50 range.
Type: biochemical
Experimental: Anaplastic Lymphoma Kinase (ALK) Inhibitory Activity The in-vitro kinase assay was performed using the HTRF kinEASE TK kit available from Cisbio. The operation steps are indicated in the instructions of the kit. This method was used to detect the inhibitory effect of the compound to be tested on the activity of ALK enzymes in vitro, including wild-type ALK (Cat.PV3867, Invitrogen), ALK L1196M (Cat. PV6168, Life technologies), and ALK F1174L (Cat. PV6160, Life technologies). The specific operation steps were as follows. […] In addition to the control wells, 4 μL of the diluted compound solution to be tested was added to the reaction wells, and 4 μL of the 2.5% DMSO solution corresponding to the ALK enzyme previously formulated was added to the control wells. (2) 2 μL of a TK-biotin substrate solution previously formulated in a substrate concentration corresponding to the ALK enzyme was added to all reaction wells. (3) 2 μL of a previously prepared enzyme solution of corresponding concentration was added to all the reaction wells except the negative wells, and 2 μL of the 1× kinase buffer corresponding to the enzyme was added to the negative wells to make up the volume. The plate was sealed with a membrane, and incubated for 10 min at room temperature after mixing uniformly, such that the compounds were bond to the enzyme fully. (4) 2 μL of an ATP solution in a concentration corresponding to the ALK enzyme was added to all the reaction wells to initiate the kinase reaction, where the enzyme reaction time by ALK was 60 minutes. (5) An ALK test solution was prepared 5 minutes before the end of the kinase reaction. Streptavidin-XL665 and TK antibody europium cryptate (1:100) solutions for assay having a concentration corresponding to the enzyme were prepared using the detection buffer in the kit. (6) After the completion of the kinase reaction, 5 μl of diluted Streptavidin-XL665 was added to all the reaction wells respectively, and mixed uniformly, and then the diluted TK antibody europium cryptate solution for assay was added immediately. (7) The plate was sealed, mixed uniformly and allowed to react at room temperature for 1 h. The fluorescence signal (excitation at 320 nm, and emission at 665 nm and 615 nm) was detected using the ENVISION instrument (Perkinelmer). The inhibition rate for each well was calculated from the values of the fully active wells and the background signal wells. The values of replicated wells were averaged, and the half-maximal inhibitory activity (IC50) of each compound to be tested was fitted with a professional drawing analysis software PRISM 5.0.

ALK enzyme, sequence (Q9UM73 19-1620 limits assumed): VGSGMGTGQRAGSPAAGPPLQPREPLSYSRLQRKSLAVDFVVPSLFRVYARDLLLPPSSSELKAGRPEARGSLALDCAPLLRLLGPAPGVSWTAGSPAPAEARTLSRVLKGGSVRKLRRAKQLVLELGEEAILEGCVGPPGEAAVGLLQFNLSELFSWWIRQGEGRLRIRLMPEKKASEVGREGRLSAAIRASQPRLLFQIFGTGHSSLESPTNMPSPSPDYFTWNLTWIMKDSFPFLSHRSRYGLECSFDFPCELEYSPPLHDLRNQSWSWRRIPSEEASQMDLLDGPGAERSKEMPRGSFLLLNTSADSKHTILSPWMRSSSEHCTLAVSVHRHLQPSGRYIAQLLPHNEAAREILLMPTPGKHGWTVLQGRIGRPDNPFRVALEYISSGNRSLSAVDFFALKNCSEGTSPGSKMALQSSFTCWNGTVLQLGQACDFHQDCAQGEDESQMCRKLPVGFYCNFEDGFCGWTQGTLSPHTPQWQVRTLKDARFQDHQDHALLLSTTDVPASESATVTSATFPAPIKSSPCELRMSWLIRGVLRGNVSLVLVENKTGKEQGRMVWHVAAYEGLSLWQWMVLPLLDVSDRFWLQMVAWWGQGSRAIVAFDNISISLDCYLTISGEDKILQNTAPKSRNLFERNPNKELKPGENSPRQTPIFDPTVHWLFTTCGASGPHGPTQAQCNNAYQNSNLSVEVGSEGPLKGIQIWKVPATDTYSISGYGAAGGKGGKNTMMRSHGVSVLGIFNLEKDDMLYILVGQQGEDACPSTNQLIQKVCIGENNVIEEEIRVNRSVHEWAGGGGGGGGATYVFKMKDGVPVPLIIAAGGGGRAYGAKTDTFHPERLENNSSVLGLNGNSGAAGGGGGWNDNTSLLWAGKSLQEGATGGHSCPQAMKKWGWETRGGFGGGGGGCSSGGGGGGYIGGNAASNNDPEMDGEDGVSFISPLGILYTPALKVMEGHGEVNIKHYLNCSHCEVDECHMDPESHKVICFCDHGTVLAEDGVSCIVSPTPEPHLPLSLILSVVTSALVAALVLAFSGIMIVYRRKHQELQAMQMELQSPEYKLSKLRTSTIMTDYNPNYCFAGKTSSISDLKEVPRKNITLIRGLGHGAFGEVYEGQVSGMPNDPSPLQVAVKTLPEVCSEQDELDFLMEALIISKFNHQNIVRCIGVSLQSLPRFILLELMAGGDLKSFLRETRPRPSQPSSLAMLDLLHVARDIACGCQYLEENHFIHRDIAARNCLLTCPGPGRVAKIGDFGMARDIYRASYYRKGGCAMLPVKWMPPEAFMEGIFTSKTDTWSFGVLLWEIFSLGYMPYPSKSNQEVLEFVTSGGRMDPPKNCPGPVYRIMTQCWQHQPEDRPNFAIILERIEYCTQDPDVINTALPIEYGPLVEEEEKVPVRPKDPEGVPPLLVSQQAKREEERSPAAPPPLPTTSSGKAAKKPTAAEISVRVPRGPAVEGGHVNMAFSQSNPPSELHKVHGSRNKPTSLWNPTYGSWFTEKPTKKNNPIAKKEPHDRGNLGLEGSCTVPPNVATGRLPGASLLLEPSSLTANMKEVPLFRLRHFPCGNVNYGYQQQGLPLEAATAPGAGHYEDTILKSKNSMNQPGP

SMILES	IC50 [nM]
COc1cc(C2CCNCC2)ccc1Nc1ncc(Cl)c(Nc2ccccc2S(=O)(=O)C(C)C)n1 [Compound I-15, 5-chloro-N2-(2-D3-methoxy-4-(piperidin-4-yl)phenyl)-N4-(2-(isopropylsulfonyl)phenyl)pyrimidin-2,4-diamine]	1 to 10
COc1cc(N2CCNCC2)c(C)cc1Nc1ncc(Cl)c(Nc2ccccc2S(=O)(=O)C(C)C)n1 [Compound I-17, 5-chloro-N4-(2-(isopropylsulfonyl)phenyl)-N2-(2-D3-methoxy-4-(piperazin-1-yl)-5-methyl-phenyl)pyrimidin-2,4-diamine]	1 to 10
CCOc1cc(C2CCNCC2)c(Cl)cc1Nc1ncc(Cl)c(Nc2ccccc2S(=O)(=O)C(C)C)n1 [Compound I-19, 5-chloro-N2-(5-chloro-2-D5-ethoxy-4-(piperidin-4-yl)phenyl)-N4-(2-(isopropylsulfonyl)phenyl)pyrimidin-2,4-diamine]	1 to 10
CCOc1cc(C2CCNCC2)ccc1Nc1ncc(Cl)c(Nc2ccccc2S(=O)(=O)C(C)C)n1 [Compound I-20, 5-chloro-N2-(2-D5-ethoxy-4-(piperidin-4-yl)phenyl)-N4-(2-(isopropylsulfonyl)phenyl)pyrimidin-2,4-diamine]	1 to 10
COc1cc(C2CCNCC2)c(C(F)(F)F)cc1Nc1ncc(Cl)c(Nc2ccccc2S(=O)(=O)C(C)C)n1 [Compound I-22, 5-chloro-N4-(2-(isopropylsulfonyl)phenyl)-N2-(2-D3-methoxy-4-(piperidin-4-yl)-5-(trifluoromethyl)phenyl)pyrimidin-2,4-diamine]	1 to 10
COc1cc(C2CCNCC2)c(C#N)cc1Nc1ncc(Cl)c(Nc2ccccc2S(=O)(=O)C(C)C)n1 [Compound I-23, 5-((5-chloro-4-((2-(isopropylsulfonyl)phenyl)amino)pyrimidin-2-yl)amino)-4-D3-methoxy-2-(piperidin-4-yl)benzonitrile]	1 to 10
COc1cc(N2CCC(N3CCN(C)CC3)CC2)ccc1Nc1nc(Nc2ccccc2S(=O)(=O)C(C)C)c2cc[nH]c2n1 [Compound I-24]	10 to 100
COc1cc(N2CCC(N3CCN(C)CC3)CC2)ccc1Nc1nc(Nc2ccccc2S(=O)(=O)C(C)C)c2[nH]ccc2n1 [Compound I-25]	10 to 100
COc1cc(N2CCC(N(C)C)CC2)ccc1Nc1nc(Nc2ccccc2S(=O)(=O)C(C)C)c2ccsc2n1 [Compound I-26, N2-(4-(4-(dimethylamino)piperidin-1-yl)-2-D3-methoxyphenyl)-N4-(2-(isopropylsulfonyl)phenyl)thieno[2,3-d]pyrimidin-2,4-diamine]	10 to 100
COc1cc(N2CCC(N(C)C)CC2)ccc1Nc1nc(Nc2ccccc2S(=O)(=O)C(C)C)c2sccc2n1 [Compound I-27, N2-(4-(4-(dimethylamino)piperidin-1-yl)-2-D3-methoxyphenyl)-N4-(2-(isopropylsulfonyl)phenyl)thieno[3,2-d]pyrimidin-2,4-diamine]	10 to 100
COc1cc(N2CCC(N3CCOCC3)CC2)ccc1Nc1nc(Nc2ccccc2S(=O)(=O)C(C)C)c2ccccc2n1 [Compound I-28, N4-(2-(isopropylsulfonyl)phenyl)-N2-(2-D3-methoxy-4-(4-morpholinopiperidin-1-yl)phenyl)quinazolin-2,4-diamine]	10 to 100
COc1cc(C2CCNCC2)c(C)cc1Nc1nc(Nc2ccccc2S(=O)(=O)C(C)C)c2ccccc2n1 [Compound I-29, N4-(2-(isopropylsulfonyl)phenyl)-N2-(2-D3-methoxy-5-methyl-4-(piperidin-4-yl)phenyl)quinazolin-2,4-diamine]	10 to 100

Other lines, results leading:

IC50 [nM]	SMILES
10 to 100	CCc1cc(Nc2ncc(Cl)c(Nc3ccccc3S(=O)(=O)C(C)C)n2)c(OC)cc1C1CCNCC1 [Compound 44, reference compound]
10 to 100	COc1cc(C2CCNCC2)c(C)cc1Nc1ncc(Cl)c(Nc2ccccc2S(=O)(=O)C(C)C)n1 [Compound 45, reference compound]
1 to 10	COc1cc(C2CCNCC2)c(C)cc1Nc1nccc(Nc2ccccc2S(=O)(=O)C(C)C)n1 [Compound I-1, N4-(2-(isopropylsulfonyl)phenyl)-N2-(2-D3-methoxy-5-methyl-4-(piperidin-4-yl)phenyl)pyrimidin-2,4-diamine]
1 to 10	COc1cc(C2CCNCC2)c(C)cc1Nc1ncc(F)c(Nc2ccccc2S(=O)(=O)C(C)C)n1 [Compound I-2, 5-fluoro-N4-(2-(isopropylsulfonyl)phenyl)-N2-(2-D3-methoxy-5-methyl-4-(piperidin-4-yl)phenyl)pyrimidin-2,4-diamine]
1 to 10	COc1cc(C2CCNCC2)c(C)cc1Nc1ncc(Br)c(Nc2ccccc2S(=O)(=O)C(C)C)n1 [Compound I-4, 5-bromo-N4-(2-(isopropylsulfonyl)phenyl)-N2-(2-D3-methoxy-5-methyl-4-(piperidin-4-yl)phenyl)pyrimidin-2,4-diamine]
1 to 10	[2H]C([2H])([2H])Oc1cc(C2CCNCC2)c(C)cc1Nc1ncc(C(F)(F)F)c(Nc2ccccc2S(=O)(=O)C(C)C)n1 [Compound I-5, N4-(2-(isopropylsulfonyl)phenyl)-N2-(2-methoxy-5-methyl-4-(piperidin-4-yl)phenyl)-5-(trifluoromethyl)pyrimidin-2,4-diamine]
1 to 10	COc1cc(C2CCNCC2)c(C)cc1Nc1ncc(C#N)c(Nc2ccccc2S(=O)(=O)C(C)C)n1 [Compound I-6]
1 to 10	COc1cc(C2CCNCC2)c(C)cc1Nc1ncc(OC)c(Nc2ccccc2S(=O)(=O)C(C)C)n1 [Compound I-7, N4-(2-(isopropylsulfonyl)phenyl)-5-methoxy-N2-(2-D3-methoxy-5-methyl-4-(piperidin-4-yl)phenyl)pyrimidin-2,4-diamine]
1 to 10	COc1cc(C2CCNCC2)c(C)cc1Nc1ncc(C)c(Nc2ccccc2S(=O)(=O)C(C)C)n1 [Compound I-8, N4-(2-(isopropylsulfonyl)phenyl)-N2-(2-D3-methoxy-5-methyl-4-(piperidin-4-yl)phenyl)-5-methylpyrimidin-2,4-diamine]
1 to 10	CCc1cnc(Nc2cc(C)c(C3CCNCC3)cc2OC)nc1Nc1ccccc1S(=O)(=O)C(C)C [Compound I-9, 5-ethyl-N4-(2-(isopropylsulfonyl)phenyl)-N2-(2-D3-methoxy-5-methyl-4-(piperidin-4-yl)phenyl)pyrimidin-2,4-diamine]
1 to 10	COc1cc(C2CCNCC2)c(C)cc1Nc1ncc([N+](=O)[O-])c(Nc2ccccc2S(=O)(=O)C(C)C)n1 [Compound I-10, N4-(2-(isopropylsulfonyl)phenyl)-N2-(2-D3-methoxy-5-methyl-4-(piperidin-4-yl)phenyl)-5-nitropyrimidin-2,4-diamine]
10 to 100	COc1cc(C2CCNCC2)c(C)cc1Nc1ncc(-c2ccccc2)c(Nc2ccccc2S(=O)(=O)C(C)C)n1 [Compound I-11, N4-(2-(isopropylsulfonyl)phenyl)-N2-(2-D3-methoxy-5-methyl-4-(piperidin-4-yl)phenyl)-5-phenylpyrimidin-2,4-diamine]
1 to 10	C=Cc1cnc(Nc2cc(C)c(C3CCNCC3)cc2OC)nc1Nc1ccccc1S(=O)(=O)C(C)C [Compound I-12, N4-(2-(isopropylsulfonyl)phenyl)-N2-(2-D3-methoxy-5-methyl-4-(piperidin-4-yl)phenyl)-5-ethenylpyrimidin-2,4-diamine]
1 to 10	C#Cc1cnc(Nc2cc(C)c(C3CCNCC3)cc2OC)nc1Nc1ccccc1S(=O)(=O)C(C)C [Compound I-13, 5-ethynyl-N4-(2-(isopropylsulfonyl)phenyl)-N2-(2-D3-methoxy-5-methyl-4-(piperidin-4-yl)phenyl)pyrimidin-2,4-diamine]
1 to 10	COc1cc(C2CCNCC2)c(Cl)cc1Nc1ncc(Cl)c(Nc2ccccc2S(=O)(=O)C(C)C)n1 [Compound I-18, 5-chloro-N2-(5-chloro-2-D3-methoxy-4-(piperidin-4-yl)phenyl)-N4-(2-(isopropylsulfonyl)phenyl)pyrimidin-2,4-diamine]
1 to 10	COc1cc(C2CCNCC2)c(F)cc1Nc1ncc(Cl)c(Nc2ccccc2S(=O)(=O)C(C)C)n1 [Compound I-21, 5-chloro-N2-(5-fluoro-2-D3-methoxy-4-(piperidin-4-yl)phenyl)-N4-(2-(isopropylsulfonyl)phenyl)pyrimidin-2,4-diamine]
10 to 100	COc1cc(C2CCNCC2)c(C)cc1Nc1nc(Nc2ccccc2S(=O)(=O)C(C)C)c2cc[nH]c2n1 [Compound I-30, N4-(2-(isopropylsulfonyl)phenyl)-N2-(2-D3-methoxy-5-methyl-4-(piperidin-4-yl)phenyl)-7H-pyrrolo[2,3-d]pyrimidin-2,4-diamine]
